Laboratory results published in patent US6638964B2, “Sulfonamide-containing indole compounds” (Eisai Co., Ltd., priority 1999, dated 2003).
Values after ≈ are worked out from the molar mass of the structure shown.

tested on: Endothelial cells derived from human umbilical vein (HUVEC); experiment: Inhibitory effect of growth of endothelial cells (MTT method); type: cell-based; conditions: 72 h, incubating for three days
Protocol: Endothelial cells derived from human umbilical vein (HUVEC; manufactured by Sanko Junyaku) incubated in an EGM medium (manufactured by Sanko Junyaku) containing 100 Units of penicillin and 100 μg/ml of streptomycin were adjusted to 0.8-1×10^4 cells/ml and each 100 μl were separately placed on a 96-well plate. After incubating in a CO2 incubator (5% CO2) at 37 ° C. overnight, 100 μl of EGM medium containing test compound diluted in a three-fold manner were added thereto followed by incubating for three days. The cell numbers at that time were measured by MTT method. That is, 50 μl of phosphate buffer containing 0.33% of 3-(4,5-dimethylthiazol-2-yl)-2,5-diphenyltetrazolium bromide (MTT) was added thereto and incubation was continued for 3-4 hours. Then, after the supernatant liquid of the culture was removed, 100 μl of dimethyl sulfoxide (DMSO) was added to dissolve a formazane which was formed in the cells and the absorbance at the wave length of 540 nm was measured by use of plate reader (manufactured by Corona Denki).
(§1) Inhibiting rate was calculated from the following formula and 50% inhibiting concentration (IC50) was determined for each compound.
Inhibition Rate (%)=(C−T)/C×100
(§2) C: Absorbance when no compound was added
(§3) T: Absorbance when a compound was added

SMILES | IC50 [µg/mL]
Cc1ccc(NS(=O)(=O)c2cccc(C#N)c2)c2[nH]cc(C#N)c12 [Example 1, 3-Cyano-N-(3-cyano-4-methyl-1H-indol-7-yl)benzenesulfonamide] | 0.1 (≈ 0.297 µM)
Cc1ccc(NS(=O)(=O)c2ccc(Cl)nc2)c2[nH]cc(C#N)c12 [Example 2, 6-Chloro-N-(3-cyano-4-methyl-1H-indol-7-yl)-3-pyridinesulfonamide] | 0.12 (≈ 0.346 µM)
Cc1cc(NS(=O)(=O)c2ccc(S(N)(=O)=O)cc2)c2[nH]cc(Br)c2c1 [Example 3, N-(3-Bromo-5-methyl-1H-indole-7-yl)-4-sulfamoylbenzenesulfonamide] | 0.62 (≈ 1.4 µM)
Nc1ccc(S(=O)(=O)Nc2cc(Br)cc3c(Cl)c[nH]c23)cn1 [Example 4, 6-Amino-N-(5-bromo-3-chloro-1H-indole-7-yl)-3-pyridinesulfonamide] | 1.3 (≈ 3.24 µM)
Cc1cc(NS(=O)(=O)c2cccc(C#N)c2)c2[nH]cc(Br)c2c1 [Example 5, N-(3-Bromo-5-methyl-1H-indole-7-yl)-3-cyanobenzenesulfonamide] | 0.98 (≈ 2.51 µM)
N#Cc1ccc(S(=O)(=O)Nc2ccc(Br)c3cc[nH]c23)cc1 [Example 6, N-(4-Bromo-1H-indole-7-yl)-4-cyanobenzenesulfonamide] | 1.2 (≈ 3.19 µM)
Nc1ccc(S(=O)(=O)Nc2ccc(Cl)c3cc[nH]c23)cn1 [Example 7, 6-Amino-N-(4-chloro-1H-indole-7-yl)-3-pyridinesulfonamide] | 0.98 (≈ 3.04 µM)
Nc1ccc(S(=O)(=O)Nc2ccc(Cl)c3c(Br)c[nH]c23)cn1 [Example 8, 6-Amino-N-(3-bromo-4-chloro-1H-indole-7-yl)-3-pyridinesulfonamide] | 0.49 (≈ 1.22 µM)
Cc1cc(NS(=O)(=O)c2ccc(C#N)s2)c2[nH]cc(Br)c2c1 [Example 9, N-(3-Bromo-5-methyl-1H-indole-7-yl)-5-cyano-2-thiophenesulfonamide] | 1.6 (≈ 4.04 µM)
Nc1ncc(S(=O)(=O)Nc2ccc(Br)c3c(Cl)c[nH]c23)cn1 [Example 10, 2-Amino-N-(4-bromo-3-chloro-1H-indole-7-yl)-5-pyrimidinesulfonamide] | 0.38 (≈ 0.944 µM)

tested on: HCT 116 cell strain derived from human cancer of the colon; experiment: Antitumor effect, HCT 116 human colon cancer subcutaneously transplanted to nude mice; type: in vivo, nude mice (KSN); conditions: 50 mg/kg per os two times a day, 22nd day
Protocol: (§4) In the meanwhile, evaluation of an antitumor effect was carried out in accordance with a method of Koyanagi, et al. (Cancer Res., 94, 1702-1706, 1994) using a KP-1 cell strain derived from human pancreatic cancer and an HCT 116 cell strain derived from human cancer of the colon. The above-mentioned human cancer cells (5^×10^6 cells) were subcutaneously transplanted to nude mice (KSN) of 6 to 7 weeks age and, since the stage where it became to the size of about 100 mm^3, administration of the compound of the present invention was started. In the experiments, ten mice were used for a group to which no drug was administered while, in a drug-administered group, five mice were used for each dose. The dose of 50 mg/kg, 100 mg/kg or 200 mg/kg was continuously administered per os two times a day and the size of the tumor on the 22nd day from the beginning of the administration was compared with that in the group to which no drug was administered. The result was 37%, 30% and 11%, respectively in the KP-1 cell strain derived from human pancreatic cancer and 0.2%, 0.3% and 0.0%, respectively in the HCT 116 cell strain derived from human cancer of the colon in the case of a group to which the compound of Example 1 was administered for example.

SMILES | size of the tumor compared with that in the group to which no drug was administered [%]
Cc1ccc(NS(=O)(=O)c2cccc(C#N)c2)c2[nH]cc(C#N)c12 [Example 1, 3-Cyano-N-(3-cyano-4-methyl-1H-indol-7-yl)benzenesulfonamide] | 0.2

same assay, conditions: 100 mg/kg per os two times a day, 22nd day

SMILES | size of the tumor compared with that in the group to which no drug was administered [%]
Cc1ccc(NS(=O)(=O)c2cccc(C#N)c2)c2[nH]cc(C#N)c12 [Example 1, 3-Cyano-N-(3-cyano-4-methyl-1H-indol-7-yl)benzenesulfonamide] | 0.3

same assay, conditions: 200 mg/kg per os two times a day, 22nd day

SMILES | size of the tumor compared with that in the group to which no drug was administered [%]
Cc1ccc(NS(=O)(=O)c2cccc(C#N)c2)c2[nH]cc(C#N)c12 [Example 1, 3-Cyano-N-(3-cyano-4-methyl-1H-indol-7-yl)benzenesulfonamide] | 0.0

tested on: Mouse B16 melanoma cells; experiment: Inhibitory effect of proliferation of mouse B16 melanoma (MTT method); type: cell-based; conditions: 72 h, incubating for 3 days
Protocol: Mouse B16 melanoma cells incubated in a Dulbecco-modified Eagle medium (DMED; manufactured by Nissui Seiyaku) containing 10% of fetal bovine serum, 100 Units/ml of penicillin and 100 μg/ml of streptomycin were adjusted to 2^×10^4 cells/ml and each 100 μl thereof were separately placed on a 96-well plate. After an incubation was carried out in a CO2 incubator (5% CO2) at 37° C. for one night, then 100 μl of the above culture containing a test compound diluted in a 3-fold series were added thereto followed by incubating for 3 days and the cell numbers at that time were measured by an MTT method. Incidentally, a treatment with a 0.33% MTT solution was carried out for 1-2 hour(s).
as §1
(§5) Inhibiting Rate (%)=(C−T)/C^×100
as §2, §3

SMILES | IC50 [µg/mL]
Cc1ccc(NS(=O)(=O)c2cccc(C#N)c2)c2[nH]cc(C#N)c12 [Example 1, 3-Cyano-N-(3-cyano-4-methyl-1H-indol-7-yl)benzenesulfonamide] | 10 (≈ 29.7 µM)
Cc1ccc(NS(=O)(=O)c2ccc(Cl)nc2)c2[nH]cc(C#N)c12 [Example 2, 6-Chloro-N-(3-cyano-4-methyl-1H-indol-7-yl)-3-pyridinesulfonamide] | 15 (≈ 43.3 µM)
Cc1cc(NS(=O)(=O)c2ccc(S(N)(=O)=O)cc2)c2[nH]cc(Br)c2c1 [Example 3, N-(3-Bromo-5-methyl-1H-indole-7-yl)-4-sulfamoylbenzenesulfonamide] | 21 (≈ 47.3 µM)
Nc1ccc(S(=O)(=O)Nc2cc(Br)cc3c(Cl)c[nH]c23)cn1 [Example 4, 6-Amino-N-(5-bromo-3-chloro-1H-indole-7-yl)-3-pyridinesulfonamide] | 19 (≈ 47.3 µM)
Cc1cc(NS(=O)(=O)c2cccc(C#N)c2)c2[nH]cc(Br)c2c1 [Example 5, N-(3-Bromo-5-methyl-1H-indole-7-yl)-3-cyanobenzenesulfonamide] | 8.8 (≈ 22.5 µM)
N#Cc1ccc(S(=O)(=O)Nc2ccc(Br)c3cc[nH]c23)cc1 [Example 6, N-(4-Bromo-1H-indole-7-yl)-4-cyanobenzenesulfonamide] | 6.5 (≈ 17.3 µM)
Nc1ccc(S(=O)(=O)Nc2ccc(Cl)c3cc[nH]c23)cn1 [Example 7, 6-Amino-N-(4-chloro-1H-indole-7-yl)-3-pyridinesulfonamide] | 7.5 (≈ 23.2 µM)
Nc1ccc(S(=O)(=O)Nc2ccc(Cl)c3c(Br)c[nH]c23)cn1 [Example 8, 6-Amino-N-(3-bromo-4-chloro-1H-indole-7-yl)-3-pyridinesulfonamide] | 19 (≈ 47.3 µM)
Cc1cc(NS(=O)(=O)c2ccc(C#N)s2)c2[nH]cc(Br)c2c1 [Example 9, N-(3-Bromo-5-methyl-1H-indole-7-yl)-5-cyano-2-thiophenesulfonamide] | 8.4 (≈ 21.2 µM)
Nc1ncc(S(=O)(=O)Nc2ccc(Br)c3c(Cl)c[nH]c23)cn1 [Example 10, 2-Amino-N-(4-bromo-3-chloro-1H-indole-7-yl)-5-pyrimidinesulfonamide] | 23 (≈ 57.1 µM)

tested on: KP-1 cell strain derived from human pancreatic cancer; experiment: Antitumor effect, KP-1 human pancreatic cancer subcutaneously transplanted to nude mice; type: in vivo, nude mice (KSN); conditions: 50 mg/kg per os two times a day, 22nd day, KP-1
Protocol: as §4

SMILES | size of the tumor compared with that in the group to which no drug was administered [%]
Cc1ccc(NS(=O)(=O)c2cccc(C#N)c2)c2[nH]cc(C#N)c12 [Example 1, 3-Cyano-N-(3-cyano-4-methyl-1H-indol-7-yl)benzenesulfonamide] | 37

same assay, conditions: 100 mg/kg per os two times a day, 22nd day, KP-1

SMILES | size of the tumor compared with that in the group to which no drug was administered [%]
Cc1ccc(NS(=O)(=O)c2cccc(C#N)c2)c2[nH]cc(C#N)c12 [Example 1, 3-Cyano-N-(3-cyano-4-methyl-1H-indol-7-yl)benzenesulfonamide] | 30

same assay, conditions: 200 mg/kg per os two times a day, 22nd day, KP-1

SMILES | size of the tumor compared with that in the group to which no drug was administered [%]
Cc1ccc(NS(=O)(=O)c2cccc(C#N)c2)c2[nH]cc(C#N)c12 [Example 1, 3-Cyano-N-(3-cyano-4-methyl-1H-indol-7-yl)benzenesulfonamide] | 11

same assay, conditions: overall statement for KP-1 and HCT 116 transplanted nude mice

SMILES | antitumor effect
Cc1ccc(NS(=O)(=O)c2cccc(C#N)c2)c2[nH]cc(C#N)c12 [Example 1, 3-Cyano-N-(3-cyano-4-methyl-1H-indol-7-yl)benzenesulfonamide] | significant antitumor effect

tested on: aorta pieces of rat; experiment: Antiangiogenic effect: capillary formation from rat aorta pieces incubated in collagen; type: cell-based; conditions: numbers of capillaries formed around the aorta, 7th day from addition of test compound
Protocol: The inhibition degree of angiogenesis which was observed when aorta pieces of rat were incubated in collagen was defined as an antiangiogenic effect. That is, the aorta excised from male rat of Sprague-Dawley strain (10-12 weeks age) was washed with a Hanks' solution so that fat tissues around there were removed minutely. The aorta was incised to prepare pieces of 2 mm square and they were allowed to stand in a 24-well plate holding the endothelial cells upside. Then, 500 μl of neutralized Type I collagen (Cell Matrix Type I-A; manufactured by Nitta Gelatin) were poured over each well and allowed to stand at room temperature for about 20 minutes in a clean bench to solidify the gel. After confirming that the gel was solidified, 500 μl of MCDB 131 medium (manufactured by Chlorella Kogyo) were added thereto followed by incubating in a CO2 incubator (5% CO2) at 37° C. On the next day, the culture medium was exchanged with 500 μl of MCDB 131 medium containing the test compound and the incubation was continued. After three days, the medium was again exchanged with 500 μl of MCDB 131 medium containing the test compound and, at the stage of the 7th day from the initiation of addition of the test compound, numbers of capillaries formed around the aorta were counted under a microscope. The solution containing the test compound was prepared in a three-fold dilution system where 10 μg/ml was the highest concentration.
Inhibiting rate was calculated from the following formula and 50% inhibiting concentration (IC50) for each test compound was determined.
as §5
C: Numbers of capillaries when no compound was added
T: Numbers of capillaries when a compound was added

SMILES | IC50 [µg/mL]
Cc1ccc(NS(=O)(=O)c2cccc(C#N)c2)c2[nH]cc(C#N)c12 [Example 1, 3-Cyano-N-(3-cyano-4-methyl-1H-indol-7-yl)benzenesulfonamide] | 0.08 (≈ 0.238 µM)
Cc1ccc(NS(=O)(=O)c2ccc(Cl)nc2)c2[nH]cc(C#N)c12 [Example 2, 6-Chloro-N-(3-cyano-4-methyl-1H-indol-7-yl)-3-pyridinesulfonamide] | 0.07 (≈ 0.202 µM)
Cc1cc(NS(=O)(=O)c2ccc(S(N)(=O)=O)cc2)c2[nH]cc(Br)c2c1 [Example 3, N-(3-Bromo-5-methyl-1H-indole-7-yl)-4-sulfamoylbenzenesulfonamide] | 0.1 (≈ 0.225 µM)
Nc1ccc(S(=O)(=O)Nc2cc(Br)cc3c(Cl)c[nH]c23)cn1 [Example 4, 6-Amino-N-(5-bromo-3-chloro-1H-indole-7-yl)-3-pyridinesulfonamide] | 0.1 (≈ 0.249 µM)
Cc1cc(NS(=O)(=O)c2cccc(C#N)c2)c2[nH]cc(Br)c2c1 [Example 5, N-(3-Bromo-5-methyl-1H-indole-7-yl)-3-cyanobenzenesulfonamide] | 0.15 (≈ 0.384 µM)
N#Cc1ccc(S(=O)(=O)Nc2ccc(Br)c3cc[nH]c23)cc1 [Example 6, N-(4-Bromo-1H-indole-7-yl)-4-cyanobenzenesulfonamide] | 0.06 (≈ 0.159 µM)
Nc1ccc(S(=O)(=O)Nc2ccc(Cl)c3cc[nH]c23)cn1 [Example 7, 6-Amino-N-(4-chloro-1H-indole-7-yl)-3-pyridinesulfonamide] | 0.42 (≈ 1.3 µM)
Nc1ccc(S(=O)(=O)Nc2ccc(Cl)c3c(Br)c[nH]c23)cn1 [Example 8, 6-Amino-N-(3-bromo-4-chloro-1H-indole-7-yl)-3-pyridinesulfonamide] | 0.05 (≈ 0.124 µM)
Cc1cc(NS(=O)(=O)c2ccc(C#N)s2)c2[nH]cc(Br)c2c1 [Example 9, N-(3-Bromo-5-methyl-1H-indole-7-yl)-5-cyano-2-thiophenesulfonamide] | 0.05 (≈ 0.126 µM)
Nc1ncc(S(=O)(=O)Nc2ccc(Br)c3c(Cl)c[nH]c23)cn1 [Example 10, 2-Amino-N-(4-bromo-3-chloro-1H-indole-7-yl)-5-pyrimidinesulfonamide] | 0.06 (≈ 0.149 µM)
